The record followed here is ChEMBL document CHEMBL5038665, “Identification of the Benzoimidazole Compound as a Selective FLT3 Inhibitor by Cell-Based High-Throughput Screening of a Diversity Library” (J Med Chem, 2022).

Calls of active or inactive are those of the source. The rule behind the calls is not given here. Bounds are passed on as bounds.

Data set [1] can be described thus: AUC (0-t) in 12 hrs fasted Sprague-Dawley rat at 2 mg/kg, iv measured upto 24 hrs by LC-MS analysis. Conditions: in vivo. Set-up: route intravenous, dose 2 mg/kg, time <=24. In kind it is ADME, organism-based.
The test system of data set [2] is MV4-11. Briefly: Antitumor activity against human MV4-11 cells xenografted in Balb/c mouse assessed as reduction in tumor weight at 100 mg/kg, po administered for 28 days. In kind it is functional, organism-based. Conditions: time 28.0 day.
Data set [3] concerns the target Mast/stem cell growth factor receptor Kit (Homo sapiens, UniProt P10721). Briefly: Inhibition of KIT (unknown origin).
The target in data set [4] is Fibroblast growth factor receptor 1 (Homo sapiens, UniProt P11362). Briefly: Inhibition of FGFR1 (unknown origin).
Data set [5] deals with HL-60. Briefly: Antiproliferative activity against human HL-60 cells expressing wild type FLT3 assessed as reduction in cell viability measured after 72 hrs by MTS assay. In kind it is functional, cell-based. To be noted: HL-60, 72 h. (Tetrazolium assays rely on reduction of a dye to a coloured formazan, in cell work by metabolically active cells.)
A short description of data set [6]: AUC (0-t) in 12 hrs fasted Sprague-Dawley rat at 15 mg/kg, po measured upto 24 hrs by LC-MS analysis. In kind it is ADME, organism-based. Set-up: route oral, dose 15 mg/kg, time <=24. Conditions: in vivo.
Data set [7] can be described thus: Oral bioavailability in 12 hrs fasted Sprague-Dawley rat at 15 mg/kg by LC-MS analysis. In kind it is ADME, organism-based. To be noted: in vivo.
The target of data set [8] is T1, Receptor-type tyrosine-protein kinase FLT3 (Mus musculus) (UniProt Q00342).
T1 sequence (whole entry): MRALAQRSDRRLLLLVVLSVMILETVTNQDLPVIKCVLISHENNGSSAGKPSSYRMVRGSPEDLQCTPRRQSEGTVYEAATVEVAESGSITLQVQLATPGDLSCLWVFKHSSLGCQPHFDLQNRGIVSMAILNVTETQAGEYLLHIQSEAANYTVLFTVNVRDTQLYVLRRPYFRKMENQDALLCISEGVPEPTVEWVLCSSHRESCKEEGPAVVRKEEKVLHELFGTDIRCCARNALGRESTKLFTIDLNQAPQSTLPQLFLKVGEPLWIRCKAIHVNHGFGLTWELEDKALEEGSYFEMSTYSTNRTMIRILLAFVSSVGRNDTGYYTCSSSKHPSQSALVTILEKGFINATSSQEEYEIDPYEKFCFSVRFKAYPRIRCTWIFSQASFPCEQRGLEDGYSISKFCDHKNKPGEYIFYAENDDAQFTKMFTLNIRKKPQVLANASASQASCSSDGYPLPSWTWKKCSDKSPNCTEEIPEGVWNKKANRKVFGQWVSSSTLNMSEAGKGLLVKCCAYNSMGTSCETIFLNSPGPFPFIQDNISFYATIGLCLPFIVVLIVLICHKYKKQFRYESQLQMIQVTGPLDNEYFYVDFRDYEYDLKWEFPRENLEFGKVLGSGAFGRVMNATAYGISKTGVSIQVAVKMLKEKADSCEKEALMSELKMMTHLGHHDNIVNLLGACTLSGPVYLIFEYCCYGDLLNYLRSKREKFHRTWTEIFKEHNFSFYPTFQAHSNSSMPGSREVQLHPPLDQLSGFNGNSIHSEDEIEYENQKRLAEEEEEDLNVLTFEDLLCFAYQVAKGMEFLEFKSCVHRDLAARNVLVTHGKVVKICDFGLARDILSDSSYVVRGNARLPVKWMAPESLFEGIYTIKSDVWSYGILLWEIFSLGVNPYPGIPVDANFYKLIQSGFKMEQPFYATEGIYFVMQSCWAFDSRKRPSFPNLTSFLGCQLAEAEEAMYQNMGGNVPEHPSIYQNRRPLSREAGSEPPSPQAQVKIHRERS
As to the kind of experiment: Inhibition of FLT3 phosphorylation in mouse Ba/F3 FLT3-ITD cells assessed as reduction in phosphorylated FLT3 level measured after 12 hrs by western blot analysis. In kind it is cell-based. In general terms: In western blotting, separated proteins are transferred to a membrane and probed.

Data set [9] in a line: Antiproliferative activity against human ML-1 cells expressing wild type FLT3 assessed as reduction in cell viability measured after 72 hrs by MTS assay. Conditions: ML1, 72 h. In kind it is functional, cell-based.
The target in data set [10] is T2, Receptor-type tyrosine-protein kinase FLT3 (Homo sapiens, UniProt P36888).
T2 sequence (P36888 whole entry): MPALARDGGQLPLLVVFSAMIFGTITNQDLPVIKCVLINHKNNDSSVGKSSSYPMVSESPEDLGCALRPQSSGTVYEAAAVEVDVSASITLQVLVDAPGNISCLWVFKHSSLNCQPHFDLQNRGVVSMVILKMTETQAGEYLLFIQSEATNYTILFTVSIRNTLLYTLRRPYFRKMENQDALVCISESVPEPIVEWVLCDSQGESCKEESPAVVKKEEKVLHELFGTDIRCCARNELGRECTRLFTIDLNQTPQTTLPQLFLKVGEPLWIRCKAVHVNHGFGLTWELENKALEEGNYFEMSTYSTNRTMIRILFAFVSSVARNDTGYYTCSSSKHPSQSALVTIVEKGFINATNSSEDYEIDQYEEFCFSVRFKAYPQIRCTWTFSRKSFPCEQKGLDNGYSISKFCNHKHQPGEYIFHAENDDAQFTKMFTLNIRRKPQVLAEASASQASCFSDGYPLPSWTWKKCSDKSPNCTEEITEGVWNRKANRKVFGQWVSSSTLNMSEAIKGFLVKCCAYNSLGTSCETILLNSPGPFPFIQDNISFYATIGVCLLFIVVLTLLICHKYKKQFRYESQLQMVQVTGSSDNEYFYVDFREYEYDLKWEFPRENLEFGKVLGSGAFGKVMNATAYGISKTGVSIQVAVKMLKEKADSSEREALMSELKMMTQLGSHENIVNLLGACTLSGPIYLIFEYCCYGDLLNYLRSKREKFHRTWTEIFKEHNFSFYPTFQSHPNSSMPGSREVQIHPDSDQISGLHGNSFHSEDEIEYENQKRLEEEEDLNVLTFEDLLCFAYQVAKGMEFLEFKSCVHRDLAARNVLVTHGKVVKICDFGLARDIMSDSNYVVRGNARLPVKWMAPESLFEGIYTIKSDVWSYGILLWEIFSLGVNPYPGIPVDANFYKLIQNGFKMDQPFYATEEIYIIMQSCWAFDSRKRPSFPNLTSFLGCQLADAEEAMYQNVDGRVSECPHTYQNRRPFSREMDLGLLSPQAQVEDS
As to the kind of experiment: Inhibition of FLT3 (unknown origin).

Data set [11] relates to MV4-11. As to the kind of experiment: Induction of apoptosis in human MV4-11 cells assessed as survival population at 0.5 uM measured after 48 hrs by Annexin V-FITC/propidium iodide staining based flow cytometry(reference value: 98.01 %). In kind it is functional.
The target in data set [12] is T1, Receptor-type tyrosine-protein kinase FLT3 (Mus musculus). Briefly: Inhibition of FLT3-mediated signalling pathway in mouse Ba/F3 FLT3-ITD cells assessed as inhibition of STAT5 phosphorylation at 1 to 900 nM measured after 12 hrs by western blot analysis. In kind it is cell-based. Conditions: dose 1-900 nM.
The test system of data set [13] is MOLM-13. Briefly: Induction of apoptosis in human MOLM-13 cells assessed as survival population at 0.5 uM measured after 48 hrs by Annexin V-FITC/propidium iodide staining based flow cytometry(reference value: 97.35 %). In kind it is functional. (Flow cytometry measures light scatter and fluorescence of single cells or particles in a stream.)
For data set [14], the system named is MV4-11. Briefly: Induction of apoptosis in human MV4-11 cells assessed as survival population at 0.1 uM measured after 48 hrs by Annexin V-FITC/propidium iodide staining based flow cytometry(reference value: 98.01 %). In kind it is functional.
A short description of data set [15]: Antiproliferative activity against mouse Ba/F3 FLT3-ITD cells assessed as reduction in cell viability measured after 72 hrs by MTS assay. In kind it is functional, cell-based.

Fibroblast growth factor receptor 1, sequence (P11362 whole entry): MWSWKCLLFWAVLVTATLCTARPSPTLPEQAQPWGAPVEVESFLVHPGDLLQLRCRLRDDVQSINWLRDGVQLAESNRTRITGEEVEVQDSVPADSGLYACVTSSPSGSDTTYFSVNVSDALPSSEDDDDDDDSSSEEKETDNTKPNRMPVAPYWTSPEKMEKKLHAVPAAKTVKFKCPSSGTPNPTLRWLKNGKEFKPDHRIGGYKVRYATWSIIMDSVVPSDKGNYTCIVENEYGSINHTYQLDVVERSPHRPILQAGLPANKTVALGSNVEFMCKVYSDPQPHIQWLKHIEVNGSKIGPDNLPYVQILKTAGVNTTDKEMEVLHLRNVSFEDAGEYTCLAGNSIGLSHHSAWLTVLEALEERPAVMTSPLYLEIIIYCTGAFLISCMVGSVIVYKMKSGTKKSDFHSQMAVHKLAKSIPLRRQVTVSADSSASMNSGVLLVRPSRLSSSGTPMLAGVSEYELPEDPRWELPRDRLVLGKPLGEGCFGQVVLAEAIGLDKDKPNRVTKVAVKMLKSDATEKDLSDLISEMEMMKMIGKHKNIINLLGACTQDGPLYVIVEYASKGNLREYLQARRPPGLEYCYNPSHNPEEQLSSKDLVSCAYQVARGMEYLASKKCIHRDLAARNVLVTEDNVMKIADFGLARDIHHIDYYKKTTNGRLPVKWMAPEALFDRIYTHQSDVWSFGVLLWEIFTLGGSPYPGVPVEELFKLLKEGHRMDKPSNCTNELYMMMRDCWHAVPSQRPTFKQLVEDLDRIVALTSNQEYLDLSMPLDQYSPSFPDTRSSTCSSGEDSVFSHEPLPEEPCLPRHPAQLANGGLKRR
Mast/stem cell growth factor receptor Kit, sequence (P10721 whole entry): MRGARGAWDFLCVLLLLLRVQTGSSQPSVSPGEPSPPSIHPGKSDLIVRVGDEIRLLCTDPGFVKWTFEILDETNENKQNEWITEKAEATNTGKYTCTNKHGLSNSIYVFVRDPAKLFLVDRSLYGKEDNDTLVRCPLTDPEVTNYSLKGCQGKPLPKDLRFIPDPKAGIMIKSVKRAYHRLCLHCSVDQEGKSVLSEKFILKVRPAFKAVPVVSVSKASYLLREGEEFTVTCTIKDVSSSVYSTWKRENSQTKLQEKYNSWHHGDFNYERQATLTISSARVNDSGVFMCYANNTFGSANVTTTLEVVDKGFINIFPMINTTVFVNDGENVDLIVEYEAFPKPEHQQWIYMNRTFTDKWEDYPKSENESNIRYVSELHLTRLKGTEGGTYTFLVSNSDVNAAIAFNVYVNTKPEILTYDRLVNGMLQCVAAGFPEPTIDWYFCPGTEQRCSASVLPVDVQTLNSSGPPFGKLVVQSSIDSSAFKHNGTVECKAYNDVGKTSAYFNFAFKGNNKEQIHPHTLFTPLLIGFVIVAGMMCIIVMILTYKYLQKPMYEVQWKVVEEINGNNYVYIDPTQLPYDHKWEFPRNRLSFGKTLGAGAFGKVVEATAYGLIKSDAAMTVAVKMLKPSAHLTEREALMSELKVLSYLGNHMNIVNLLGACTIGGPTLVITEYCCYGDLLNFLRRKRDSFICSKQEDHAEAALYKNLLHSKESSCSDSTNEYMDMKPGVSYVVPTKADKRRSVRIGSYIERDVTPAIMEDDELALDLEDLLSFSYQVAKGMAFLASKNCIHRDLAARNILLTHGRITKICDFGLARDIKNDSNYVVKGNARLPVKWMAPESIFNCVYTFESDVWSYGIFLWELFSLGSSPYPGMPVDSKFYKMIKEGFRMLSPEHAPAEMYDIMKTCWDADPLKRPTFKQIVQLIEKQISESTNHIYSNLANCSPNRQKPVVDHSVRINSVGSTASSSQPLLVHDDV

`COc1cc(CNc2ccc3c(c2)ncn3-c2ccccc2)ccc1OCCO`: the AUC(0-t) at 24 h in data set [1] was 800 ng·h/mL; in data set [6], 2890 ng·h/mL. Also, the result in data set [2] was Active. In addition, the IC50 in data set [3] was 160 nM; in [4], above 1000 nM; in data set [5], above 50000 nM; in data set [9] it was above 50000 nM; in [10] it was 85 nM; in data set [15] it was 75.4 nM. The bioavailability in data set [7] turned out to be 48.2%. For the same compound, in data set [8], the inhibition entry was “Dose-Dependent Effect”. Further, the values for the Activity in [11], in data set [13] and in [14] were 78.6%, 68.85% and 94.26%, respectively. Besides, the inhibition result in data set [12] was “Active”.

Broadly, the AUC(0-t) is exposure summed from dosing to a finite time, without extrapolation to infinity. Higher therefore signals more exposure. Broadly, the IC50 is the concentration needed to halve the response being measured. Usually bioavailability stands for the share of a dose that reaches the circulation, judged against a reference dose that is usually intravenous.
